According to patent publication US12083101B2, “Biaryl derivatives as YAP/TAZ-TEAD protein-protein interaction inhibitors” (Novartis AG, priority 2020, dated 2024):
Like-named read-outs stand apart in the source and are kept apart here.

Key:
[1] = tested on: NCI-H2052 Tet-On shYAP_2371 pLenti6 MCAT_Luc cells; experiment: Proliferation assay (resazurin), NCI-H2052; type: cell-based; details: 72 hours incubation
Method: (§1) This cell line was also transduced with a Tet-pLKO-puro-based construct mediating tetracycline-inducible expression of a short-hairpin directed against the 3′UTR of the YAP1 mRNA (5′-[…]-3′).
(§2) Stock solutions of compounds were prepared at a concentration of 10 mM in DMSO and stored at 4° C. Where necessary to afford a full dose-response curve, the stock solutions were pre-diluted in DMSO to 1'000-fold the desired reduced start concentration. On the day after cell seeding, eleven 2-fold serial dilutions of each compound were dispensed directly into the cell assay plates using a HP 300D non-contact Digital Dispenser (TECAN, Mannedorf, Switzerland). The final concentration of DMSO was normalized to 0.1% in all wells.
(§3) The functional effect of compounds on cell proliferation was assessed using NCI-H2052 Tet-On shYAP_2371 pLenti6 MCAT_Luc and MKN-45/Ubc-luc cells by quantifying the reducing capacity of live cells using the redox indicator dye resazurin. […] For data analysis, the assay background value determined in wells containing medium, but no cells, was subtracted from all data points. […] The effect of a particular test compound concentration on cell proliferation/viability was expressed as percentage of day 0-corrected fluorescence reading obtained for cells treated with vehicle only (DMSO, final concentration 0.1%), which was set as 100%, whereas the fluorescence reading for wells containing medium only, but no cells, was set as −100%. Compound concentrations leading to half-maximal growth inhibition (GI50) were determined using standard four parameter curve fitting.

MKN-45/Ubc-luc cells [2] = experiment: Proliferation assay (resazurin), MKN-45; type: cell-based; details: 72 hours incubation
Method: As a specificity control, MKN-45 cells were stably transduced with a Ubc-Luc reporter construct, in which constitutive expression of firefly luciferase is driven by the promoter of the ubiquitin C housekeeping gene.
as §2, §3

MKN-45/Ubc-luc cells [3] = experiment: Reporter gene specificity control (Ubc-luciferase), MKN-45
[4] = tested on: NCI-H2052 Tet-On shYAP_2371 pLenti6 MCAT_Luc cells (YAP-dependent transcription); experiment: YAP reporter gene activity assay (MCAT-luciferase), NCI-H2052; type: cell-based; details: 24 hours incubation, BrightGlo luminescence
Method: as §1, §2
The ability of compounds to inhibit YAP-dependent transcription was assessed in NCI-H2052 Tet-On shYAP_2371 pLenti6 MCAT_Luc cells, while specificity (lack of unspecific inhibition of luciferase expression of activity) was assessed in MKN-45/Ubc-luc cells. […] Following incubation for 24 hours at 37° C., compound-mediated modulation of reporter-gene activity was quantified 5 min after addition of 20 μl BrightGlo (Promega, Cat #E2620), by measuring luminescence intensity on a multi-mode plate-reader (TECAN, Männedorf, Switzerland, Integration time 100 ms). For data analysis, the assay background value determined in wells containing medium, but no cells, was subtracted from all data points. Dose-dependent compound effects were expressed as % of vehicle-treated control (luminescence signal produced by cells receiving DMSO only) and IC50s calculated using a four-parametric fit model.

[5] = target: Avi-humanTEAD4 217-434 / Cy5 labeled humanYAP 60-100 (Homo sapiens (Human), UniProt Q15561); experiment: TR-FRET YAP-TEAD4 in-vitro biochemical assay; type: binding; details: 1 nM Avi-humanTEAD4 217-434, 20 nM Cy5-humanYAP 60-100, 1 h room temperature
[6] = Homo sapiens, MKN-45, 24 h, read-out: Reporter gene assay MKN-45 IC50 [μM], MKN-45/Ubc-luc cells (YAP deleted, specificity control), 24 hours incubation
[7] = read-out: Reporter gene assay MKN-45 IC50, MKN-45/Ubc-luc cells (YAP deleted, specificity control), 24 hours incubation

Chain of Avi-humanTEAD4 217-434 / Cy5 labeled humanYAP 60-100 (Q15561 217-434): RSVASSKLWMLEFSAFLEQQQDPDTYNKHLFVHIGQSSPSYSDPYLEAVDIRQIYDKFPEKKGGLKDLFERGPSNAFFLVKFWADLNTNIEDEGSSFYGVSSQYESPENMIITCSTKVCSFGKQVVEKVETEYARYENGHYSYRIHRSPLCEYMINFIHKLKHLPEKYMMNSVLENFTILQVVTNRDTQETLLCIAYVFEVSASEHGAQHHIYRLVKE

Row | GI50 ([1]; Homo sapiens, NCI-H2052, 72 h) | GI50 (MKN-45/Ubc-luc cells [2]; Homo sapiens) | IC50 (MKN-45/Ubc-luc cells [3]; [6]) | IC50 ([4]; Homo sapiens, NCI-H2052, 24 h) | IC50 [5] | GI50 [1] | GI50 (MKN-45/Ubc-luc cells [2]) | IC50 (MKN-45/Ubc-luc cells [3]; [7]) | IC50 [4] | SMILES
1 | 158 nM | > 20000 nM | > 20 µM | 187 nM | 14 nM |  |  |  |  | CNC(=O)c1cnc(OCCO)c(F)c1-c1c(Cl)c(F)cc2c1C[C@](c1ccccc1)([C@@H]1CCCN1)N2 (atropisomer, axis not shown) [Example 173, 4-((2S,4S)-5-Chloro-6-fluoro-2-phenyl-2-((S)-pyrrolidin-2-yl)indolin-4-yl)-5-fluoro-6-(2-hydroxyethoxy)-N-methylnicotinamide]
2 | 856 nM | > 15000 nM | > 15 µM | 1060 nM | 122 nM |  |  |  |  | C[C@H](O)COc1ccc(C(N)=O)c(-c2c(Cl)c(F)cc3c2C[C@](c2ccccc2)(C2CC(C)(O)CN2)O3)c1F (stereo partly drawn) [Example 159, 2-((2S,4S)-5-Chloro-6-fluoro-2-(4-hydroxy-4-methylpyrrolidin-2-yl)-2-phenyl-2,3-dihydrobenzofuran-4-yl)-3-fluoro-4-((S)-2-hydroxypropoxy)benzamide]
3 |  |  |  |  | 3 nM | 21 nM | 11000 nM | 12 µM | 37 nM | COc1ccc(C(N)=O)c(-c2c(Cl)c(F)cc3c2C[C@](c2ccccc2)([C@@H]2CCCN2)O3)c1F [Example 174, 2-((2S,4S)-5-Chloro-6-fluoro-2-phenyl-2-((S)-pyrrolidin-2-yl)-2,3-dihydrobenzofuran-4-yl)-3-fluoro-4-methoxybenzamide]
4 |  |  |  |  | 2 nM | 55 nM | > 10000 nM | > 10 µM | 22 nM | C[C@H]1c2c(ccc(Cl)c2-c2c(C(N)=O)ccc(OC(F)F)c2F)O[C@]1(CN[C@H]1CC[C@](C)(O)CC1)c1ccccc1 (relative stereo) [Example 104b, 2-((2S,3S,4S)-5-chloro-2-((((trans)-4-hydroxy-4-methylcyclohexyl)amino)methyl)-3-methyl-2-phenyl-2,3-dihydrobenzofuran-4-yl)-4-(difluoromethoxy)-3-fluorobenzamide]
5 | 1570 nM | > 10000 nM | > 10 µM | 2310 nM | 74 nM |  |  |  |  | NC[C@@]1(c2ccccc2)Cc2c(cc(F)c(Cl)c2-c2c(F)cccc2C(N)=O)N1 (atropisomer, axis not shown) [Example 134, 2-((2S,4S)-2-(aminomethyl)-5-chloro-6-fluoro-2-phenylindolin-4-yl)-3-fluorobenzamide]
6 | 284 nM | > 10000 nM | > 20 µM | 173 nM | 21 nM |  |  |  |  | NC[C@@]1(c2ccccc2)Cc2c(ccc(Cl)c2-c2c(C(N)=O)ccc(OC(F)F)c2F)O1 (atropisomer, axis not shown) [Example 11, 2-((2S,4S)-2-(aminomethyl)-5-chloro-2-phenyl-2,3-dihydrobenzofuran-4-yl)-4-(difluoromethoxy)-3-fluorobenzamide]
7 | 310 nM | > 10000 nM | > 10 µM | 276 nM | 9 nM |  |  |  |  | NC[C@@]1(c2ccccc2)Cc2c(cc(F)c(Cl)c2-c2c(C(N)=O)ccc(OC(F)F)c2F)O1 (atropisomer, axis not shown) [Example 35, 2-((2S,4S)-2-(aminomethyl)-5-chloro-6-fluoro-2-phenyl-2,3-dihydrobenzofuran-4-yl)-4-(difluoromethoxy)-3-fluorobenzamide]
8 | 467 nM | > 10000 nM | > 10 µM | 231 nM | 33 nM |  |  |  |  | NC(=O)c1ccc(OC(F)F)c(F)c1-c1c(Cl)c(F)cc2c1C[C@@](CN[C@H]1CC[C@@H](O)[C@H](F)C1)(c1ccccc1)O2 (atropisomer, axis not shown) [Example 81a, 2-((2S,4S)-5-chloro-6-fluoro-2-((((1S,3R,4R)-3-fluoro-4-hydroxycyclohexyl)amino)methyl)-2-phenyl-2,3-dihydrobenzofuran-4-yl)-4-(difluoromethoxy)-3-fluorobenzamide]
9 | 85 nM | > 10000 nM | > 10 µM | 74 nM | 4 nM |  |  |  |  | CNC(=O)c1ccc(OC[C@H](C)O)c(F)c1-c1c(Cl)c(F)cc2c1[C@H](C)[C@](c1ccccc1)(C1CCN1)O2 (stereo partly drawn) [Example 150, 2-((2S,3S,4S)-2-(Azetidin-2-yl)-5-chloro-6-fluoro-3-methyl-2-phenyl-2,3-dihydrobenzofuran-4-yl)-3-fluoro-4-((S)-2-hydroxypropoxy)-N-methylbenzamide]
10 | 52 nM | > 10000 nM | > 10 µM | 33 nM | 2 nM |  |  |  |  | COCCOc1ccc(C(N)=O)c(-c2c(Cl)c(F)cc3c2C[C@@](CN)(c2ccccc2)O3)c1F (atropisomer, axis not shown) [Example 37, 2-((2S,4S)-2-(aminomethyl)-5-chloro-6-fluoro-2-phenyl-2,3-dihydrobenzofuran-4-yl)-3-fluoro-4-(2-methoxyethoxy)benzamide]
11 | 82 nM | > 10000 nM | > 10 µM | 58 nM | 10 nM |  |  |  |  | C[C@H](O)COc1ccc(C(N)=O)c(-c2c(Cl)c(F)cc3c2[C@H](C)[C@](c2ccccc2)(C2CCCN2)O3)c1F (stereo partly drawn) [Example 167, 2-((2S,3S,4S)-5-chloro-6-fluoro-3-methyl-2-phenyl-2-(pyrrolidin-2-yl)-2,3-dihydrobenzofuran-4-yl)-3-fluoro-4-((S)-2-hydroxypropoxy)benzamide]
12 | 670 nM | > 10000 nM | > 10 µM | 147 nM | 75 nM |  |  |  |  | CS(=O)(=O)[C@H]1CC[C@@H](NC[C@@]2(c3ccccc3)Cc3c(cc(F)c(Cl)c3-c3c(C(N)=O)ccc(OC(F)F)c3F)O2)CC1 [Example 54a, 2-((2S,4S)-5-Chloro-6-fluoro-2-((((cis)-4-(methylsulfonyl)cyclohexyl)amino)methyl)-2-phenyl-2,3-dihydrobenzofuran-4-yl)-4-(difluoromethoxy)-3-fluorobenzamide]
13 | 171 nM | 6700 nM | 7.8 µM | 114 nM | 4 nM |  |  |  |  | C[C@]1(O)CC[C@@H](NC[C@@]2(c3ccccc3)Cc3c(cc(F)c(Cl)c3-c3c(C(N)=O)ccc(-n4ccnc4)c3F)O2)CC1 (atropisomer, axis not shown) [Example 69b, 2-((2S,4S)-5-chloro-6-fluoro-2-((((cis)-4-hydroxy-4-methylcyclohexyl)amino)methyl)-2-phenyl-2,3-dihydrobenzofuran-4-yl)-3-fluoro-4-(1H-imidazol-1-yl)benzamide]
14 |  | > 10000 nM | > 10 µM |  | 16 nM | 240 nM |  |  | 203 nM | CC(C)(O)C1CC(NC[C@@]2(c3ccccc3)Cc3c(cc(F)c(Cl)c3-c3c(C(N)=O)ccc(OC(F)F)c3F)O2)C1 (single isomer, unassigned) [Example 62a]
15 | 892 nM | > 10000 nM | > 10 µM | 615 nM | 25 nM |  |  |  |  | CNC(=O)c1ccc(OC)c(F)c1-c1c(C#N)ccc2c1C[C@@](CN[C@H]1CC[C@](C)(O)CC1)(c1ccccc1)O2 (atropisomer, axis not shown) [Example 129, 2-((2S,4R)-5-Cyano-2-((((trans)-4-hydroxy-4-methylcyclohexyl)amino)methyl)-2-phenyl-2,3-dihydrobenzofuran-4-yl)-3-fluoro-4-methoxy-N-methylbenzamide]
